# Assay results as given in publication PMC5732813, “Novel piplartine-containing ruthenium complexes: synthesis, cell growth inhibition, apoptosis induction and ROS production on HCT116 cells” (Oncotarget, 2017).
# Several values for one entry are separate records, joined by “and”; a condition that tells them apart may be missing. Identical values can stand only once. Like-named read-outs stand apart in the source and are kept apart here.
# Legend:
# [1] = system: HSC-3 (human oral squamous cell carcinoma); experiment: Cytotoxic activity, alamar blue assay, HSC-3; assay type: cell-based; conditions: HSC3, IC50 72h
# From the text: HCT116 (human colon carcinoma), HepG2 (human hepatocellular carcinoma), HSC-3 (human oral squamous cell carcinoma), SCC-4 (human oral squamous cell carcinoma), SCC-9 (human oral squamous cell carcinoma), HL-60 (human promyelocytic leukemia), K-562 (human chronic myelogenous leukemia), B16-F10 (murine melanoma), MRC-5 (human lung fibroblast), WT SV40 MEF (wild-type immortalized mouse embryonic fibroblast) and BAD KO SV40 MEF (BAD gene knockout immortalized mouse embryonic fibroblast) cell lines were obtained from the American Type Culture Collection (ATCC, Manassas, VA, USA) and cultured in RPMI-1640 medium (Gibco-BRL, Gaithersburg, MD, USA) with 10% fetal bovine serum (Life, Carlsbad, CA, USA), 2 mM L-glutamine (Vetec Química Fina, Duque de Caxias, RJ, Brazil) and 50 μg/mL gentamycin (Life, Carlsbad, CA, USA). Adherent cells were collected by treatment with 0.25% trypsin EDTA solution (Gibco-BRL, Gaithersburg, MD, USA). All cell lines were cultured in flasks at 37°C in 5% CO2 and sub-cultured every 3-4 days to maintain exponential growth.
# Cell viability was quantified using the alamar blue assay, according to Ahmed et al.. Cells were inserted in 96-well plates for all experiments (7 x 10^4 cells/mL for adherent cells or 3 x 10^5 cells/mL for suspended cells in 100 μL of medium). […] Negative controls received the vehicle that was used for diluting the compounds tested.
# [2] = system: HCT116 cells; conditions: trypan blue
# Description: In all experiments, 2 mL of a HCT116 cell solution (7 x 10^4 cells/mL) was inserted in 24-well plates and incubated overnight to allow the cells to adhere to the plate surface. […] The negative control was treated with the vehicle (0.1% of a solution containing 70% sorbitol, 25% tween 80 and 5% water) used for diluting the compounds tested. […] Cell viability was assessed using trypan blue exclusion assay for all experiments.
# [3] = system: HCT116 cells; experiment: Gene expression analysis by qPCR array (TaqMan Array Human Molecular Mechanisms of Cancer); assay type: cell-based; conditions: HCT116, 12 h; DOX 1 μM, PL 10 μM, 1 2.5 μM, 2 5 μM; negative control RQ = 1.0
# Description: HCT116 cells were plated in bottles tissue culture (7x10^4 cells/mL). After 12h of incubation with the complexes, total RNA was isolated from the cells using the RNeasy Plus mini kit (Qiagen, Hilden, Germany) according to the manufacturer’s instructions. The RNA was evaluated by fluorimetry (QuBit™, Life Technologies, Camarillo, CA, EUA). RNA reverse transcription was performed using Superscript VILO™ (Invitrogen Corporation, Waltham, MA, USA). A 96-well plate TaqMan® Array Human Molecular Mechanisms of Cancer (ID 4418806, Applied Biosystems™, Foster City, CA, EUA) was used for the gene expression study by qPCR. The reactions were conducted in the ABI ViiA7 (Applied Biosystems™, Foster City, CA, EUA). The cycle conditions comprised 2 min at 50 °C, 20 s at 95 °C, then 40 cycles of 3 s at 95 °C and 30 s at 60 °C. […] The GAPDH, 18S and HPRT1 genes were used for normalization. All experiments were performed in DNase/RNase free conditions.
substance,measurement,setting,value
[Ru(piplartine)(dppb)(bipy)](PF6)2 [Complex 2],more potent than metal-free piplartine,[1],6 fold
same,reduced the number of viable cells,"[2]; HCT116, 2.5 μM, 24 h",35.5%
same,reduced the number of viable cells,"[2]; HCT116, 2.5 μM, 48 h",55.5%
same,reduced the number of viable cells,"[2]; HCT116, 5 μM, 24 h",45.8%
same,reduced the number of viable cells,"[2]; HCT116, 5 μM, 48 h",66.9%
same,RQ ABL1,[3],0.863
same,RQ AKT1,[3],0.642
same,RQ AKT2,[3],0.592
same,RQ APC,[3],0.576
same,RQ BAX,[3],0.739
same,RQ BCAR1,[3],0.596
same,RQ BCL2,[3],0.8 and 0.748
same,RQ BCL2L1,[3],0.739
same,RQ BCL2L11,[3],0.904
same,RQ BID,[3],0.671
same,RQ BRAF,[3],0.781
same,RQ CASP8,[3],0.930
same,RQ CASP9,[3],0.828
same,RQ CCND1,[3],0.5 and 0.461
same,RQ CCND3,[3],0.723
same,RQ CCNE1,[3],0.893
same,RQ CDC42,[3],1.411
same,RQ CDH1,[3],1.1 and 1.098
same,RQ CDK2,[3],0.693
same,RQ CDK4,[3],0.898
same,RQ CDKN1A,[3],0.996
same,RQ CDKN1B,[3],0.783
same,RQ CDKN2A,[3],1.2 and 1.153
same,RQ CRK,[3],0.758
same,RQ CTNNB1,[3],0.877
same,RQ CYCS,[3],1.0 and 1.043
same,RQ E2F1,[3],0.736
same,RQ EGFR,[3],"11,276.3 and 11,276.298"
same,RQ ELK1,[3],0.628
same,RQ ERBB2,[3],1.006
same,RQ FADD,[3],74.1 and 74.142
same,RQ FAS,[3],1.037
same,RQ FGF2,[3],1.003
same,RQ FYN,[3],1.169
same,RQ FZD1,[3],0.9 and 0.860
same,RQ GRB2,[3],0.693
same,RQ GSK3B,[3],0.738
same,RQ GUSB,[3],2.9
same,RQ HRAS,[3],0.561
same,RQ IGF1R,[3],0.7 and 0.677
same,RQ ITGA2B,[3],0.1 and 0.135
same,RQ ITGAV,[3],"1,149.0 and 1,149.015"
same,RQ ITGB1,[3],0.579
same,RQ ITGB3,[3],1.243
same,RQ JUN,[3],2.3 and 2.306
same,RQ KDR,[3],1.4 and 1.408
same,RQ KRAS,[3],0.979
same,RQ MAP2K1,[3],"2,107.2 and 2,107.239"
same,RQ MAP3K5,[3],4.3 and 4.314
same,RQ MAPK1,[3],1.062
same,RQ MAPK3,[3],1.9 and 1.853
same,RQ MAPK8,[3],0.623
same,RQ MAPK14,[3],1.145
same,RQ MAX,[3],0.9 and 0.912
same,RQ MDM2,[3],1.272
same,RQ MYC,[3],0.796
same,RQ NFKB1,[3],0.699
same,RQ NFKB2,[3],1.536
same,RQ NFKBIA,[3],0.9 and 0.894
same,RQ NRAS,[3],0.923
same,RQ PIK3CA,[3],0.565
same,RQ PIK3R1,[3],1.3 and 1.299
same,RQ PTEN,[3],0.8 and 0.776
same,RQ PTK2,[3],2.4 and 2.357
same,RQ PTK2B,[3],1.0 and 1.024
same,RQ RAC1,[3],2.7 and 2.676
same,RQ RAF1,[3],0.9 and 0.909
same,RQ RB1,[3],0.821
same,RQ RELA,[3],0.845
same,RQ RHOA,[3],1.017
same,RQ SMAD4,[3],2.1 and 2.050
same,RQ SOS1,[3],0.2 and 0.188
same,RQ SPP1,[3],10.1 and 10.094
same,RQ SRC,[3],0.801
same,RQ TCF3,[3],0.608
same,RQ TGFB1,[3],0.868
same,RQ TGFBR1,[3],0.781
same,RQ TGFBR2,[3],1.1 and 1.085
same,RQ TP53,[3],1.5 and 1.466
same,RQ VEGFA,[3],1.321
